Experimental data from patent publication US20250352658A1, “COMBINATION THERAPY USING ANTIBODY-DRUG CONJUGATES” (ADC THERAPEUTICS SA, priority 2021, published 2025).
Square brackets hold non-standard residues; d marks the D form. Peptide text beside a SMILES is read from it. * marks the point of attachment. Dolaproine = CO[C@@H]([C@@H]1CCCN1)[C@@H](C)C(=O)O; Dil = CC[C@H](C)[C@H](NC)[C@@H](CC(=O)O)OC; X1 = C[C@@H](N*)[C@@H](O)c1ccccc1; NMeV = CN[C@H](C(=O)O)C(C)C

System: TMD8 cells
Assay: CellTiterGlo viability assay, SG3199 and MMAE combination, TMD8
Assay type: cell-based
Conditions: for Fa (fraction affected) / CI (combination index): 24 hours
Method: We tested a combination of the warheads alone used in CD19xADC (PBD SG3199) and CD79bxADC (monomethyl auristatin E (MMAE)). This was performed essentially as per Example 1, in TMD8 cells. Cells were seeded at a density of 50,000 cells/mL. […]
Cells were incubated for 24 hours and then viability was measured with CellTiterGlo assay.
For analysis of the results, data were first blank corrected (average of blank of the 3 replicates was subtracted from each data value). For GraphPad analysis, each replicate was normalized over the untreated cells (average of the 3 replicates). Data were analysed by GraphPad Prism to generate a dose response curve with Log drug concentration on X-axis and cell viability (%) on Y-axis. For CalcuSyn analysis, the average of the 3 replicates was corrected over the untreated cells.

[1] = SG3199 0.06 pM + MMAE 0.08 ng/ml
[2] = SG3199 0.06 pM + MMAE 0.2 ng/ml
[3] = SG3199 0.06 pM + MMAE 0.6 ng/ml
[4] = SG3199 0.06 pM + MMAE 1.9 ng/ml
[5] = SG3199 0.06 pM + MMAE 5.6 ng/ml
[6] = SG3199 0.23 pM + MMAE 0.08 ng/ml
[7] = SG3199 0.23 pM + MMAE 0.2 ng/ml
[8] = SG3199 0.23 pM + MMAE 0.6 ng/ml
[9] = SG3199 0.23 pM + MMAE 1.9 ng/ml
[10] = SG3199 0.23 pM + MMAE 5.6 ng/ml
[11] = SG3199 0.90 pM + MMAE 0.08 ng/ml
[12] = SG3199 0.90 pM + MMAE 0.2 ng/ml
[13] = SG3199 0.90 pM + MMAE 0.6 ng/ml
[14] = SG3199 0.90 pM + MMAE 1.9 ng/ml
[15] = SG3199 0.90 pM + MMAE 5.6 ng/ml
[16] = SG3199 3.6 pM + MMAE 0.08 ng/ml
[17] = SG3199 14.4 pM + MMAE 0.08 ng/ml
[18] = SG3199 14.4 pM + MMAE 0.2 ng/ml
[19] = SG3199 14.4 pM + MMAE 0.6 ng/ml
[20] = SG3199 14.4 pM + MMAE 1.9 ng/ml
[21] = SG3199 14.4 pM + MMAE 5.6 ng/ml
[22] = SG3199 57.5 pM + MMAE 0.08 ng/ml
[23] = SG3199 57.5 pM + MMAE 0.2 ng/ml
[24] = SG3199 57.5 pM + MMAE 0.6 ng/ml
[25] = SG3199 57.5 pM + MMAE 1.9 ng/ml
[26] = SG3199 57.5 pM + MMAE 5.6 ng/ml
[27] = SG3199 230 pM + MMAE 0.08 ng/ml

Structure (SMILES): CC[C@H](C)[C@@H]([C@@H](CC(=O)N1CCC[C@H]1[C@H](OC)[C@@H](C)C(=O)N[C@H](C)[C@@H](O)c1ccccc1)OC)N(C)C(=O)[C@@H](NC(=O)[C@@H](NC)C(C)C)C(C)C [MMAE, monomethyl auristatin E, reference compound] (H-[NMeV]V[Dil][Dolaproine]-X1)
- Fa (fraction affected) (MMAE 0.08 ng/ml alone (SG3199 0)): 0.11
- Fa (fraction affected) (MMAE 0.2 ng/ml alone (SG3199 0)): 0.17
- Fa (fraction affected) (MMAE 0.6 ng/ml alone (SG3199 0)): 0.27
- Fa (fraction affected) (MMAE 1.9 ng/ml alone (SG3199 0)): 0.29
- Fa (fraction affected) (MMAE 5.6 ng/ml alone (SG3199 0)): 0.38

Structure (SMILES): CC[C@H](C)[C@@H]([C@@H](CC(=O)N1CCC[C@H]1[C@H](OC)[C@@H](C)C(=O)N[C@H](C)[C@@H](O)c1ccccc1)OC)N(C)C(=O)[C@@H](NC(=O)[C@@H](NC)C(C)C)C(C)C.COc1cc2c(cc1OCCCCCOc1cc3c(cc1OC)C(=O)N1C=C(C)C[C@H]1C=N3)N=C[C@@H]1CC(C)=CN1C2=O [SG3199 + MMAE] (H-[NMeV]V[Dil][Dolaproine]-X1)
- CI (combination index) [1]: 1.65
- Fa (fraction affected) [1]: 0.12
- CI (combination index) [2]: 2.06
- Fa (fraction affected) [2]: 0.13
- CI (combination index) [3]: 0.53
- Fa (fraction affected) [3]: 0.27
- CI (combination index) [4]: 0.79
- Fa (fraction affected) [4]: 0.32
- CI (combination index) [5]: 1.23
- Fa (fraction affected) [5]: 0.38
- CI (combination index) [6]: 434.19
- Fa (fraction affected) [6]: 0.05
- CI (combination index) [7]: 2.22
- Fa (fraction affected) [7]: 0.14
- CI (combination index) [8]: 0.40
- Fa (fraction affected) [8]: 0.29
- CI (combination index) [9]: 1.18
- Fa (fraction affected) [9]: 0.29
- CI (combination index) [10]: 0.98
- Fa (fraction affected) [10]: 0.40
- CI (combination index) [11]: 0.58
- Fa (fraction affected) [11]: 0.19
- CI (combination index) [12]: 2.08
- Fa (fraction affected) [12]: 0.16
- CI (combination index) [13]: 0.29
- Fa (fraction affected) [13]: 0.31
- CI (combination index) [14]: 0.83
- Fa (fraction affected) [14]: 0.32
- CI (combination index) [15]: 0.85
- Fa (fraction affected) [15]: 0.41
- CI (combination index) [16]: 5.16
- Fa (fraction affected) [16]: 0.16
- CI (combination index) (SG3199 3.6 pM + MMAE 0.2 ng/ml): 69.07
- Fa (fraction affected) (SG3199 3.6 pM + MMAE 0.2 ng/ml): 0.11
- CI (combination index) (SG3199 3.6 pM + MMAE 0.6 ng/ml): 1.26
- Fa (fraction affected) (SG3199 3.6 pM + MMAE 0.6 ng/ml): 0.23
- CI (combination index) (SG3199 3.6 pM + MMAE 1.9 ng/ml): 1.36
- Fa (fraction affected) (SG3199 3.6 pM + MMAE 1.9 ng/ml): 0.28
- CI (combination index) (SG3199 3.6 pM + MMAE 5.6 ng/ml): 1.93
- Fa (fraction affected) (SG3199 3.6 pM + MMAE 5.6 ng/ml): 0.34
- CI (combination index) [17]: 12.16
- Fa (fraction affected) [17]: 0.17
- CI (combination index) [18]: 18.45
- Fa (fraction affected) [18]: 0.16
- CI (combination index) [19]: 0.60
- Fa (fraction affected) [19]: 0.29
- CI (combination index) [20]: 1.32
- Fa (fraction affected) [20]: 0.29
- CI (combination index) [21]: 1.12
- Fa (fraction affected) [21]: 0.39
- CI (combination index) [22]: 0.22
- Fa (fraction affected) [22]: 0.34
- CI (combination index) [23]: 0.39
- Fa (fraction affected) [23]: 0.33
- CI (combination index) [24]: 0.23
- Fa (fraction affected) [24]: 0.37
- CI (combination index) [25]: 0.30
- Fa (fraction affected) [25]: 0.42
- CI (combination index) [26]: 0.37
- Fa (fraction affected) [26]: 0.49
- CI (combination index) [27]: 0.03
- Fa (fraction affected) [27]: 0.47
- CI (combination index) (SG3199 230 pM + MMAE 0.2 ng/ml): 0.02
- Fa (fraction affected) (SG3199 230 pM + MMAE 0.2 ng/ml): 0.51
- CI (combination index) (SG3199 230 pM + MMAE 0.6 ng/ml): 0.03
- Fa (fraction affected) (SG3199 230 pM + MMAE 0.6 ng/ml): 0.54
- CI (combination index) (SG3199 230 pM + MMAE 1.9 ng/ml): 0.04
- Fa (fraction affected) (SG3199 230 pM + MMAE 1.9 ng/ml): 0.59
- CI (combination index) (SG3199 230 pM + MMAE 5.6 ng/ml): 0.09
- Fa (fraction affected) (SG3199 230 pM + MMAE 5.6 ng/ml): 0.62
- median Chou-Talalay combination index (CI) (TMD8, 24 hours, <0.9 indicates synergy): 0.85
